Laboratory results published in EPA's CvTdb concentration-time database (doi:10.1093/toxsci/kfy020).

Key:
Assay in all cases: concentration in plasma after dosing
[1] = tested on: rat; settings: dosed: Chloridazon, 4.17 mg/kg, oral, male, Sprague-Dawley
[2] = tested on: rat; settings: dosed: Chloridazon, 0.80 mg/kg, iv, male, Sprague-Dawley
[3] = tested on: rat; settings: dosed: Chloridazon, 4.17 mg/kg, oral, male, Sprague-Dawley; remark: listed apart in the source
[4] = tested on: rat; settings: male, Sprague-Dawley
[5] = tested on: rat; settings: dosed: Chloridazon, 0.80 mg/kg, iv, male, Sprague-Dawley; remark: listed apart in the source
[6] = tested on: rat; settings: dosed: Diazinon-o-analog, 1.02 mg/kg, iv, male, Sprague-Dawley
[7] = tested on: rat; settings: dosed: Diazinon-o-analog, 1.02 mg/kg, iv, male, Sprague-Dawley; remark: listed apart in the source
[8] = tested on: rat; settings: dosed: Diazinon-o-analog, 5.02 mg/kg, oral, male, Sprague-Dawley
[9] = tested on: rat; settings: dosed: Diazinon-o-analog, 5.02 mg/kg, oral, male, Sprague-Dawley; remark: listed apart in the source
[10] = tested on: rat; settings: dosed: Flufenacet, 1.0 mg/kg, iv, male, Sprague-Dawley
[11] = tested on: rat; settings: dosed: Flufenacet, 5.2 mg/kg, oral, male, Sprague-Dawley
[12] = tested on: rat; settings: dosed: Flufenacet, 5.2 mg/kg, oral, male, Sprague-Dawley; remark: listed apart in the source
[13] = tested on: rat; settings: dosed: Flufenacet, 1.0 mg/kg, iv, male, Sprague-Dawley; remark: listed apart in the source
[14] = tested on: rat; settings: dosed: Imidacloprid, 5.0000000000 mg/kg, oral, male, Sprague-Dawley
[15] = tested on: rat; settings: dosed: Imidacloprid, 5.0000000000 mg/kg, iv, male, Sprague-Dawley
[16] = tested on: rat; settings: dosed: Imidacloprid, 5.0000000000 mg/kg, oral, male, Sprague-Dawley; remark: listed apart in the source
[17] = tested on: rat; settings: dosed: Imidacloprid, 5.0000000000 mg/kg, oral, male, Sprague-Dawley; remark: listed apart in the source
[18] = tested on: rat; settings: dosed: Imidacloprid, 5.0000000000 mg/kg, iv, male, Sprague-Dawley; remark: listed apart in the source
[19] = tested on: rat; settings: dosed: Imidacloprid, 5.0000000000 mg/kg, iv, male, Sprague-Dawley; remark: listed apart in the source
[20] = tested on: rat; settings: dosed: Novaluron, 2.0000000000 mg/kg, oral, male, Sprague-Dawley
[21] = tested on: rat; settings: dosed: Novaluron, 2.0000000000 mg/kg, oral, male, Sprague-Dawley; remark: listed apart in the source
[22] = tested on: rat; settings: dosed: Novaluron, 0.4000000000 mg/kg, iv, male, Sprague-Dawley
[23] = tested on: rat; settings: dosed: Novaluron, 0.4000000000 mg/kg, iv, male, Sprague-Dawley; remark: listed apart in the source
[24] = tested on: rat; settings: dosed: Novaluron, 2.0000000000 mg/kg, oral, male, Sprague-Dawley; remark: listed apart in the source

Nc1cnn(-c2ccccc2)c(=O)c1Cl [Chloridazon]
concentration in plasma [ng/mL]
Settings | [1] | [2] | [3] | [5]
0.167 h | – | 228 | – | 477
0.25 h | 476 | – | 402 | –
0.5 h | 636 | 352 | 466 | 349
1 h | 858 | 102 | 863 | 106
2 h | 586 | 23.6 | 337 | 11.4
4 h | 158 | 1.66 | 64.9 | 1.03
5 min | – | 371 | – | 404
8 h | 3.03 | 0.333 | 48.8 | 1.72
24 h | 0.913 | 0.0228 | 0.604 | 0.115
48 h | 0.0563 | 0.0394 | 0.0265 | –
72 h | 0.00435 | – | 0.0146 | 0.116

[4], dosed: Chloridazon
Settings | concentration in plasma [ng/mL]
0.167 h, 0.80 mg/kg, iv | 54.2
0.25 h, 4.17 mg/kg, oral | 382
0.5 h, 0.80 mg/kg, iv | 144
0.5 h, 4.17 mg/kg, oral | 616
1 h, 0.80 mg/kg, iv | 88
1 h, 4.17 mg/kg, oral | 863
2 h, 0.80 mg/kg, iv | 106
2 h, 4.17 mg/kg, oral | 371
4 h, 0.80 mg/kg, iv | 88.3
4 h, 4.17 mg/kg, oral | 202
5 min, 0.80 mg/kg, iv | 84.5
8 h, 0.80 mg/kg, iv | 0.556
8 h, 4.17 mg/kg, oral | 93.2
24 h, 0.80 mg/kg, iv | 0.0877
24 h, 4.17 mg/kg, oral | 0.329
48 h, 0.80 mg/kg, iv | 0.0282
48 h, 4.17 mg/kg, oral | 0.0714
72 h, 0.80 mg/kg, iv | 0.072

CCOP(=O)(OCC)Oc1cc(C)nc(C(C)C)n1 [Diazinon-o-analog]
concentration in plasma [ng/mL]
Settings | [6] | [7] | [8] | [9]
0.167 h | 337 | 374 | – | –
0.25 h | – | – | 1220 | 1780
0.5 h | 349 | 1340 | 1070 | 330
1 h | 440 | 413 | 1060 | 1040
2 h | 294 | 286 | 948 | 786
4 h | 155 | 188 | 784 | 745
5 min | 214 | 247 | – | –
8 h | 59.5 | 60.9 | 292 | 316
24 h | 0.498 | 0.552 | 4.31 | 5.04
48 h | – | 0.0484 | 0.116 | 0.193
72 h | 0.247 | – | 1.21 | 3.73

[4], dosed: Diazinon-o-analog
Settings | concentration in plasma [ng/mL]
0.167 h, 1.02 mg/kg, iv | 596
0.25 h, 5.02 mg/kg, oral | 916
0.5 h, 1.02 mg/kg, iv | 597
0.5 h, 5.02 mg/kg, oral | 846
1 h, 1.02 mg/kg, iv | 356
1 h, 5.02 mg/kg, oral | 1180
2 h, 1.02 mg/kg, iv | 271
2 h, 5.02 mg/kg, oral | 1140
4 h, 1.02 mg/kg, iv | 174
4 h, 5.02 mg/kg, oral | 715
5 min, 1.02 mg/kg, iv | 564
8 h, 1.02 mg/kg, iv | 57.9
8 h, 5.02 mg/kg, oral | 298
24 h, 1.02 mg/kg, iv | 1.14
24 h, 5.02 mg/kg, oral | 2.63
48 h, 5.02 mg/kg, oral | 1.84
72 h, 1.02 mg/kg, iv | 0.481
72 h, 5.02 mg/kg, oral | 0.239

CC(C)N(C(=O)COc1nnc(C(F)(F)F)s1)c1ccc(F)cc1 [Flufenacet]
concentration in plasma [ng/mL]
Settings | [10] | [11] | [12] | [13]
0.167 h | 80.7 | – | – | 52.4
0.25 h | – | 2.17 | 0.708 | –
0.5 h | 13.7 | 1.32 | 0.41 | 8.65
1 h | 1.82 | 0.462 | 0.274 | 4.31
2 h | 0.896 | 0.22 | 0.256 | 3.42
4 h | 0.328 | 0.135 | 0.199 | 2.88
5 min | 195 | – | – | 128
8 h | 0.0709 | 0.116 | 0.15 | 0.0986
24 h | 0.0595 | 0.0179 | 0.0249 | 0.044
48 h | 0.0264 | 0.0128 | 0.017 | 0.026
72 h | 0.0353 | 0.0208 | 0.0224 | 0.0121

[4], dosed: Flufenacet
Settings | concentration in plasma [ng/mL]
0.167 h, 1.0 mg/kg, iv | 20.4
0.25 h, 5.2 mg/kg, oral | 0.81
0.5 h, 1.0 mg/kg, iv | 4.05
0.5 h, 5.2 mg/kg, oral | 0.401
1 h, 1.0 mg/kg, iv | 3.72
1 h, 5.2 mg/kg, oral | 0.451
2 h, 1.0 mg/kg, iv | 1.81
2 h, 5.2 mg/kg, oral | 0.188
4 h, 1.0 mg/kg, iv | 2.03
4 h, 5.2 mg/kg, oral | 0.146
5 min, 1.0 mg/kg, iv | 48.6
8 h, 1.0 mg/kg, iv | 2.1
8 h, 5.2 mg/kg, oral | 0.0824
24 h, 1.0 mg/kg, iv | 0.0352
24 h, 5.2 mg/kg, oral | 0.0158
48 h, 1.0 mg/kg, iv | 0.0229
48 h, 5.2 mg/kg, oral | 0.0322
72 h, 1.0 mg/kg, iv | 0.0508
72 h, 5.2 mg/kg, oral | 0.0214

O=[N+]([O-])/N=C1\NCCN1Cc1ccc(Cl)nc1 [Imidacloprid]
concentration in plasma [ng/mL]
Settings | [14] | [15] | [16] | [17] | [18] | [19]
0.25 h | 831 | – | 1770 | 4410 | – | –
0.5 h | 935 | 743 | 2660 | 4310 | 382 | 1140
1 h | 1930 | 603 | 2670 | 6030 | 560 | 922
2 h | 2060 | 786 | 2380 | 3400 | 694 | 626
4 h | 2620 | 552 | 1990 | 2480 | 548 | 478
5 min | – | 786 | – | – | 217 | 1260
8 h | 2950 | 232 | 648 | 2670 | 170 | 191
10 min | – | 683 | – | – | 328 | 1500
12 h | 1200 | 141 | 278 | 1520 | 67 | 67.5
24 h | 279 | 14 | 46 | 259 | 8.54 | 8.66
48 h | 17.9 | 2.12 | 14.5 | 33.6 | – | –
72 h | 13.2 | – | 8.76 | – | 2.49 | –

concentration in plasma [ng/mL], [4], dosed: Imidacloprid, 5.0000000000 mg/kg
Settings | iv | oral
0.25 h | – | 1600
0.5 h | 971 | 2290
1 h | 683 | 1550
2 h | 943 | 2920
4 h | 695 | 2610
5 min | 1190 | –
8 h | 327 | 2330
10 min | 1260 | –
12 h | 233 | 1360
24 h | 17.6 | 171
48 h | 2.89 | 19.7
72 h | – | 6.62

O=C(NC(=O)c1c(F)cccc1F)Nc1ccc(OC(F)(F)C(F)OC(F)(F)F)c(Cl)c1 (centres undefined) [Novaluron]
concentration in plasma [ng/mL]
Settings | [20] | [21] | [22] | [23] | [24]
0.25 h | 9.95 | 5.18 | – | – | 14
0.5 h | 24 | 25.3 | 125 | 202 | 37.7
1 h | 49.9 | 70.4 | 112 | 191 | 75
2 h | 63 | 135 | 68.3 | 120 | 165
4 h | 132 | 151 | 32.7 | 75.9 | 149
5 min | – | – | 241 | 283 | –
8 h | 89.1 | 148 | 31.4 | 34.7 | 191
10 min | – | – | 43.2 | 188 | –
12 h | 117 | 172 | 11.6 | 21.7 | 129
24 h | 81.5 | 44.3 | 8.64 | 9.78 | 59.6
48 h | 35 | 29.8 | – | 5.04 | 40.7
72 h | 16.2 | 14.6 | – | 5.1 | 22.9

[4], dosed: Novaluron
Settings | concentration in plasma [ng/mL]
0.25 h, 2.0000000000 mg/kg, oral | 2.87
0.5 h, 0.4000000000 mg/kg, iv | 194
0.5 h, 2.0000000000 mg/kg, oral | 23.8
1 h, 0.4000000000 mg/kg, iv | 176
1 h, 2.0000000000 mg/kg, oral | 70.5
2 h, 0.4000000000 mg/kg, iv | 188
2 h, 2.0000000000 mg/kg, oral | 137
4 h, 0.4000000000 mg/kg, iv | 121
4 h, 2.0000000000 mg/kg, oral | 168
5 min, 0.4000000000 mg/kg, iv | 252
8 h, 0.4000000000 mg/kg, iv | 48.3
8 h, 2.0000000000 mg/kg, oral | 199
10 min, 0.4000000000 mg/kg, iv | 161
12 h, 0.4000000000 mg/kg, iv | 21.8
12 h, 2.0000000000 mg/kg, oral | 141
24 h, 0.4000000000 mg/kg, iv | 15.9
24 h, 2.0000000000 mg/kg, oral | 53.2
48 h, 0.4000000000 mg/kg, iv | 6.27
48 h, 2.0000000000 mg/kg, oral | 25.3
72 h, 0.4000000000 mg/kg, iv | 2.8
72 h, 2.0000000000 mg/kg, oral | 21.4
